The assay relates to plasma cGMP. The assay can be described thus: In vivo monkey studies, plasma cGMP ELISA. The following applies: for Net cGMP (nM) Change from Baseline 0.083 h / Net cGMP (nM) Change from Baseline 0.25 h / Net cGMP (nM) Change from Baseline 0.5 h / Net cGMP (nM) Change from Baseline 1 h / Net cGMP (nM) Change from Baseline 2 h / Net cGMP (nM) Change from Baseline 4 h / Net cGMP (nM) Change from Baseline 8 h / Net cGMP (nM) Change from Baseline 12 h / Net cGMP (nM) Change from Baseline 24 h / Net cGMP (nM) Change from Baseline 36 h / Net cGMP (nM) Change from Baseline 48 h / Net cGMP (nM) Change from Baseline 72 h / Net cGMP (nM) Change from Baseline 96 h / Net cGMP (nM) Change from Baseline 120 h / Net cGMP (nM) Change from Baseline 144 h / Net cGMP (nM) Change from Baseline 168 h: dose 100 nmol/kg, monkey plasma; for Net cGMP (nM) Change from Baseline 0.083 h: 0.083 h postdose; for Net cGMP (nM) Change from Baseline 0.25 h: 0.25 h postdose; for Net cGMP (nM) Change from Baseline 0.5 h: 0.5 h postdose; for Net cGMP (nM) Change from Baseline 1 h: 1 h postdose; for Net cGMP (nM) Change from Baseline 2 h: 2 h postdose; for Net cGMP (nM) Change from Baseline 4 h: 4 h postdose; for Net cGMP (nM) Change from Baseline 8 h: 8 h postdose; for Net cGMP (nM) Change from Baseline 12 h: 12 h postdose; for Net cGMP (nM) Change from Baseline 24 h: 24 h postdose; for Net cGMP (nM) Change from Baseline 36 h: 36 h postdose; for Net cGMP (nM) Change from Baseline 48 h: 48 h postdose; for Net cGMP (nM) Change from Baseline 72 h: 72 h postdose; for Net cGMP (nM) Change from Baseline 96 h: 96 h postdose; for Net cGMP (nM) Change from Baseline 120 h: 120 h postdose; for Net cGMP (nM) Change from Baseline 144 h: 144 h postdose; for Net cGMP (nM) Change from Baseline 168 h: 168 h postdose; for net cGMP levels (result in words): monkeys, single SC dose, plasma. Also on record: species or system male cynomolgus monkeys. The method, then:
In vivo monkey studies were conducted as described in detail below. Young adult-to-adult male cynomolgus monkeys were given a single dose subcutaneously (SC). Blood was collected predose and at various pre-determined timepoints throughout the study period. Aliquot of cynomolgus monkey plasma was received for cyclic cGMP (cGMP) measurement and stored at −80° C. prior to use.
Control plasma was made for determining the recovery rate of spike-in cGMP using Enzo cGMP complete ELISA kit (Enzo Life Sciences, Inc, Farmingdale, NY, cat no. ADI-901-164). Briefly, blood from male Sprague Dawley rats (Inotiv, Indianapolis, IN), about 7 months old, was collected in a BD Vacutainer EDTA tube (Becton Dickinson, Franklin Lakes, NJ, cat no. BD-367856) with volume of approximate 4 mL through retro orbital bleeding. Plasma was prepared by spinning the tube in an Eppendorf Refrigerated Centrifuge 5810R (Brinkman Instruments, Inc, Westbury, NY) at 3500 rpm (3000×g) for 10 min at 4° C. Plasma was collected as Positive Control plasma. Cyclic GMP (cGMP standard from Enzo cGMP complete ELISA kit) was added to the positive control plasma at a final concentration of additional 40 nM. Positive Control and Spiked-in Control plasma were aliquoted and stored at −80° C.
The cGMP content was measured using the Enzo cGMP complete ELISA kit following the manufacturer's directions with modifications as described below. The cGMP standards provided in the kit were diluted 1:3 ranging from 50 nM to 0.023 nM in 1× assay buffer that was diluted in water from 2× assay buffer provided in the kit. The cGMP standards ([…]) were transferred to a 96-well polypropylene plate (Thermo Scientific, cat no. 442587).
Plasma samples were thawed from −80° C. and diluted 1:20 in 1× assay buffer in the above plate with a final volume of 150 μL. Assay buffer was added (150 μL) for both a non-specific binding control (in the absence of cGMP antibody) and a maximum binding control (in the absence of competing cGMP) in duplicate wells. Positive Control and Spiked-in Control plasma were diluted 1:20 in 1× assay buffer with a final volume of 150 μL in duplicate wells of the above plate. All diluted plasma was mixed by pipetting up and down several times.
Acetylation reagent mix was prepared by adding 1-part of acetic anhydride into 2-parts of triethylamine provided in the kit and mixing well using Vortex (Scientific Industries, Inc, Bohemia, NY). All controls, standards, and plasma samples were acetylated by adding 15 μL of acetylation reagent mix into the plate, one column at a time, and shaking for 1 min on a Titer Plate Shaker (Lab-Line Instrument, Inc., Melrose Park, IL) at room temperature. The plate was shaken for an additional 1 min following the acetylation of the last column to ensure the reaction was completed.
Acetylated controls, standard and plasma samples were transferred (100 μL) to an ELISA plate (n=1). Then 50 μL of cGMP conjugate were added to each well followed by the addition of 50 μL cGMP antibody to each well except for two non-specific binding wells, in which 50 μL of 1× assay buffer were added. The plate was then sealed and shaken for 2 h at room temperature on the plate shaker. Following this incubation, the plate was washed five times using 200 μL of 1× wash buffer diluted in water from 5× wash buffer provided in the kit. Then, 200 μL of para-Nitrophenylphosphate (pNpp) were added to each well. The plate was sealed with a new plate sealer and shaken in dark for 1 h at room temperature on the plate shaker. Finally, 50 μL of stop solution were added to each well to stop the enzyme reaction. The plate was then read at 405 nm using SpectraMax Plus (Molecular Devices, San Jose, CA).
The mean absorbance at 405 nm (O.D. 405 nm) for the non-specific binding controls was subtracted from the O.D. 405 nm of all samples. The subtracted O.D. 405 nm of all samples were then normalized with the mean subtracted O.D. 405 nm of the maximum binding controls as B/B0%. […]
(In general: In an ELISA, binding on a coated surface is turned into a signal by an enzyme label.)

Numbered stars: 1 amine (or outer) side, 2 acyl side, 3 side chain; on linkers, the order of the positions; unused ones are H or OH. Bridge positions count the residues as written; N and C are the ends. Square brackets hold non-standard residues; d marks the D form. * marks the point of attachment. PEG24 = NCCOCCOCCOCCOCCOCCOCCOCCOCCOCCOCCOCCOCCOCCOCCOCCOCCOCCOCCOCCOCCOCCOCCOCCOCCC(=O)O; C20 diacid = O=C(O)CCCCCCCCCCCCCCCCCCC(=O)*; γGlu = O=C(O)[C@H](CCC(=O)[*:2])N[*:1]; CH2 = C([*:1])[*:2]; βAla = NCCC(=O)O

With “(BFAEN2-βAla)-EKEKEKG-PEG24-EK-βAla-RSS[CFGKRIDRIGHQSGLGC]PSFRHGSPSSGAPPPS-NH2 (EKXRSSCFGKRIDRIGHQSGLGCPSFRHGSPSSGAPPPS; BFAEN2-βAla, PEG24, C-terminal amide; MOD_RES 1 N-terminal modified with (BFAEN2-beta-Ala)-EKEKEKG-PEG24-; wherein BFAEN2 is Bifurcated Fatty Acid Enantiomer 2; SITE 3 X at position 3 is beta-Alanine; MOD_RES 39 Amidation; DISULFID 7..23 Intrachain thioacetal bond) [Example 144]”, the “Net cGMP (nM) Change from Baseline 0.083 h” value was 5.9 nM, the “Net cGMP (nM) Change from Baseline 0.25 h” value stood at 18.26 nM, the “Net cGMP (nM) Change from Baseline 0.5 h” value amounted to 27.08 nM and the “Net cGMP (nM) Change from Baseline 1 h” value was 36.51 nM. Also, the “Net cGMP (nM) Change from Baseline 2 h” value is listed as 35.21 nM, the “Net cGMP (nM) Change from Baseline 4 h” value is reported as 27.1 nM, the “Net cGMP (nM) Change from Baseline 8 h” value is listed as 20.15 nM and the “Net cGMP (nM) Change from Baseline 12 h” value was 13.2 nM. Moreover, the “Net cGMP (nM) Change from Baseline 24 h” value is recorded as 10.23 nM, the “Net cGMP (nM) Change from Baseline 36 h” value was determined as 9.57 nM, the “Net cGMP (nM) Change from Baseline 48 h” value is 7.11 nM and the “Net cGMP (nM) Change from Baseline 72 h” value worked out at 5.22 nM. Besides, the “Net cGMP (nM) Change from Baseline 96 h” value is given as 6.83 nM, the “Net cGMP (nM) Change from Baseline 120 h” value turned out to be 3.5 nM, the “Net cGMP (nM) Change from Baseline 144 h” value was found to be 4.48 nM and the “Net cGMP (nM) Change from Baseline 168 h” value was 8.71 nM. In addition, the “net cGMP levels (result in words)” value is “increased net cGMP levels”.

In the case of “{C20 diacid-γGlu}-EKEKEKG[PEG24]EK[βAla]RSSCFGKRIDRIGHYSGLGCPSFRHGSPSSGAPPPS-NH2 (linker 15-31 via CH2) [Example 106]”, the “Net cGMP (nM) Change from Baseline 0.083 h” value is given as 3.54 nM, the “Net cGMP (nM) Change from Baseline 0.25 h” value amounted to 19.8 nM, the “Net cGMP (nM) Change from Baseline 0.5 h” value was determined as 25.25 nM and the “Net cGMP (nM) Change from Baseline 1 h” value worked out at 24.83 nM. Further, the “Net cGMP (nM) Change from Baseline 2 h” value was 26.38 nM, the “Net cGMP (nM) Change from Baseline 4 h” value stood at 26.16 nM, the “Net cGMP (nM) Change from Baseline 8 h” value came out at 14.03 nM and the “Net cGMP (nM) Change from Baseline 12 h” value came to 17.64 nM. Besides, the “Net cGMP (nM) Change from Baseline 24 h” value is reported as 9.38 nM, the “Net cGMP (nM) Change from Baseline 36 h” value is 12.13 nM, the “Net cGMP (nM) Change from Baseline 48 h” value was 8.71 nM and the “Net cGMP (nM) Change from Baseline 72 h” value is given as 5.67 nM. Further, the “Net cGMP (nM) Change from Baseline 96 h” value was determined as 6.4 nM, the “Net cGMP (nM) Change from Baseline 120 h” value came out at 7.88 nM, the “Net cGMP (nM) Change from Baseline 144 h” value came to 7.54 nM and the “Net cGMP (nM) Change from Baseline 168 h” value stood at 7.66 nM. For the same substance, the “net cGMP levels (result in words)” value is listed as “increased net cGMP levels”.

(Values after US20240174727A1, “LONG-ACTING NATRIURETIC PEPTIDES AND USES THEREOF” (Eli Lilly and Company, priority 2022, published 2024).)
